# ChEMBL document CHEMBL1141062, “Synthesis and evaluation of tricyclic pyrrolopyrimidinones as dipeptide mimetics: inhibition of interleukin-1beta-converting enzyme” (Bioorg Med Chem Lett, 2005)
# Columns and labels:
# THP-1 = assay: Inhibitory concentration against IL-1b production in THP-1 cells; format: functional, cell-based; details: Homo sapiens
# Caspase-1 = target: T1, Caspase-1 (Homo sapiens, UniProt P29466); assay: Inhibitory activity towards CASP1 using fluorogenic substrates following an incubation for over 30 min at 37 degree C
# T1 sequence (P29466 whole entry): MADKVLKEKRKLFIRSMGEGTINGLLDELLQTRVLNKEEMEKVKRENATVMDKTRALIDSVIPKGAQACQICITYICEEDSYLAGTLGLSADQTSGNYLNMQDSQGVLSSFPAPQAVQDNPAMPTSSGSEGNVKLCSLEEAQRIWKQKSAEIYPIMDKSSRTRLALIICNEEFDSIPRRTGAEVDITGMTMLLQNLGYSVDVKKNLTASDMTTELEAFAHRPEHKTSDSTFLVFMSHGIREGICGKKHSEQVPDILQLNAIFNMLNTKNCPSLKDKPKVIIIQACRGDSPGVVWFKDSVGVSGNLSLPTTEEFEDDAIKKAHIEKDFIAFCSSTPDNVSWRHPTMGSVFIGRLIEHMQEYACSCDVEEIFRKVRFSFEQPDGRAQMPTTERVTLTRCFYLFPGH
# Caspase-3 = target: T2, Caspase-3 (Homo sapiens, UniProt P42574); assay: Inhibitory activity towards CASP3 using fluorogenic substrates following an incubation for over 30 min at 37 degree C
# T2 sequence (P42574 whole entry): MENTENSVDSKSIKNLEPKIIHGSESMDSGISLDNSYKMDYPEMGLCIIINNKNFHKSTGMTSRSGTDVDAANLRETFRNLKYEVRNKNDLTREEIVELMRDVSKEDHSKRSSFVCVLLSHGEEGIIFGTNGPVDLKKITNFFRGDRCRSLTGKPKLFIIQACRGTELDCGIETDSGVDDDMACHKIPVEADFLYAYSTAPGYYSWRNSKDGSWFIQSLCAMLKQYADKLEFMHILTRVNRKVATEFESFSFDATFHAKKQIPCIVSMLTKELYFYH
# Caspase-8 = Caspase-8 (Homo sapiens, UniProt Q14790); assay: Inhibitory activity towards CASP8 using fluorogenic substrates following an incubation for over 30 min at 37 degree C
# Sequence of Caspase-8 (Q14790 217-374 limits assumed): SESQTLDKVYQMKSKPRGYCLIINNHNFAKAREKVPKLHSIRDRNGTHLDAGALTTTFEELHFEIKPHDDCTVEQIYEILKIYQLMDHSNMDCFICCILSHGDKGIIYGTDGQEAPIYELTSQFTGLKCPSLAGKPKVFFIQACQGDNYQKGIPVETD
# Sequence of Caspase-8 (Q14790 385-479 limits assumed): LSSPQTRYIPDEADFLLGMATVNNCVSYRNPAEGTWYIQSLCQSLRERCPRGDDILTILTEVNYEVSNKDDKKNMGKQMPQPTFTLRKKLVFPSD
structure (smiles),measurement,setting,value
O=C1C[C@H](NC(=O)[C@@H]2CCc3nc4cc(-c5ccccc5)nc-4c(O)n32)C(O)O1 (some centres undefined),IC50,THP-1,1060 nM
same,IC50,Caspase-1,264 nM
same,IC50,Caspase-3,10000 nM
same,IC50,Caspase-8,3050 nM
O=C1C[C@H](NC(=O)[C@@H]2CCc3nc4cc(-c5cccc(Cl)c5)nc-4c(O)n32)C(O)O1 (some centres undefined),IC50,THP-1,529 nM
same,IC50,Caspase-1,55 nM
same,IC50,Caspase-3,4390 nM
same,IC50,Caspase-8,1820 nM
O=C1C[C@H](NC(=O)[C@@H]2CCc3nc4cc(-c5ccc(Cl)cc5)nc-4c(O)n32)C(O)O1 (some centres undefined),IC50,THP-1,830 nM
same,IC50,Caspase-1,97 nM
same,IC50,Caspase-3,10000 nM
same,IC50,Caspase-8,4810 nM
O=C1C[C@H](NC(=O)[C@@H]2CCc3nc4cc(-c5ccccc5Cl)nc-4c(O)n32)C(O)O1 (some centres undefined),IC50,THP-1,252 nM
same,IC50,Caspase-1,14 nM
same,IC50,Caspase-3,1840 nM
same,IC50,Caspase-8,336 nM
CC(C)(C)c1cc2nc3n(c(O)c-2n1)[C@H](C(=O)N[C@H]1CC(=O)OC1O)CC3 (some centres undefined),IC50,THP-1,975 nM
same,IC50,Caspase-1,421 nM
same,IC50,Caspase-3,2290 nM
same,IC50,Caspase-8,7540 nM
O=C1C[C@H](NC(=O)[C@@H]2CCc3nc4ccccc4c(=O)n32)C(O)O1 (some centres undefined),IC50,THP-1,10000 nM
same,IC50,Caspase-1,4580 nM
same,IC50,Caspase-3,10000 nM
same,IC50,Caspase-8,10000 nM
